pEC50: −log10 of the molar value. Where “and” joins values, the source holds several entries; their conditions need not be identical. Equal entries are not always repeated. Structures can show the parent of a compound that is named as a salt. Where two headings read alike, the source gives them in different places.
What was measured:
CD11c+ splenic DCs = experiment: Ex vivo LPS-induced cytokine production in mouse splenic CD11c+ dendritic cells; assay type: cell-based, C57Bl/6 mice; parameters: TNF-a / IL-12p70 / IL-1b / IL-6 / KC-GRO: unit not given here; conditions: for LPS-induced cytokine responses in CD11c+ DCs: 10 nM and 100 nM for 24 hours before LPS 10 ng/mL
Protocol: (§1) Supernatants were collected into 96-well round bottom tissue culture plates 24 hours post-LPS challenge and stored at −20° C. until further analysis. Cytokine concentrations in the supernatants were measured using a Pro-inflammatory Panel 1 (mouse) multiplex immunoassay kit (MesoScale Discovery, Cat #K15048D) according to manufacturer's instructions or Pro-inflammatory Panel 1 (human) multiplex immunoassay kit (MesoScale Discovery, Cat #K15049D). In brief, 50 μL/well of calibrators and samples (diluted in Diluent 1:2) were added to the plates pre-coated with capture antibodies and incubated at room temperature while shaking at 700 rpm for 2 hours. The plates were then washed 3 times with 1×PBS containing 0.05% (w/v) Tween-20, followed by the addition of 25 μL of Detection Antibody Solution diluted in Diluent 45. After 2-hour incubation at room temperature while shaking, the plates were washed 3 times, and 150 μL of 2× Read Buffer was added to each well. Electrochemiluminescence was immediately read on a MSD Spector® instrument. Data analysis was performed using GraphPad Prism™ software. Statistical significance within the groups was determined by one-way Anova with Turkey's multiple comparison post-test and standard error of mean (SEM±) calculated.

[1] = Pharmacokinetics of 4b and 6-I in mice (blood concentration-time); assay type: in vivo, C57BL/6j mice
[2] = system: GR activation in 293/GRE-Luc cells (293_PBind GR/UAS-Luc); experiment: Luciferase reporter assay in antigen negative 293/GRE-Luc cells; assay type: cell-based, human
[3] = system: GR activation in 293/PRLR/GRE-Luc cells (HEK293/9xUAS-Luc2P/pBind-GR/PRLR-HA high cells); experiment: GR co-activator luciferase reporter cell based assay in 293/PRLR/GRE-Luc cells; parameters: species or system human
Summary of the method: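 HEK293 cells stably expressing PRLR, a Gal4–GR LBD chimera and a 9×Gal4UAS-Luc2P reporter were seeded at 20,000 per well and treated with free steroid or anti-PRLR steroid ADC. Luciferase (One-Glo) was read as RLU, and EC50 was fitted by four-parameter logistic over 10 points. Minimal activation means under 10% of free-payload maximum.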

[4] = system: human monocyte derived-DC; experiment: Ex vivo LPS-induced cytokine production in human monocyte derived DCs; assay type: cell-based; parameters: IL-6 / IL-8 / TNF-a / IL-12p70 / IL-1b: unit not given here; conditions: for Pro-inflammatory cytokine production: Condition 1: entire 7-day conditioning period; for Production of IL12p70, IL6 and TNF-α: Condition 2: conditioning of mature monocyte-derived DCs
Protocol: The complete-RPMI with IL4 and GM-CSF was changed every three days. […]
as §1

[5] = system: LPS-induced cytokine release (TNF-α); experiment: Mouse model of LPS induced cytokine release (TNF-α in plasma); assay type: in vivo, C57BL/6j mice; conditions: for Inhibition of TNF-α production: 5 mpk ip before LPS challenge, plasma at 2 hr time point; for TNF-a: plasma 2 hr post LPS challenge, 5MPK ip (−2 h) prior to LPS, individual mice
[6] = male, C57BL/6, mouse, in vivo, ip, 1 mg/kg
[7] = IP, 1 mg/Kg in male C57BL/6 mice, Mean

## CCCC1O[C@@H]2C[C@H]3[C@@H]4C[C@H](F)C5=CC(=O)C=C[C@]5(C)[C@@]4(F)[C@@H](O)C[C@]3(C)[C@]2(C(=O)CN)O1 (stereo partly drawn) [Compound 4b, (1S,2S,4R,6R,8S,9S,11S,12R,13S,19S)-8-(2-Aminoacetyl)-12,19-difluoro-11-hydroxy-9,13-dimethyl-6-propyl-5,7-dioxapentacyclo[10.8.0.0^2,90.0^4,80.0^13,18]icosa-14,17-dien-16-one; trifluoroacetic Acid Salt]
CD11c+ splenic DCs; 10 nM + LPS
  IL-1b: 6.32 ± 0.83
  IL-6: 184.54 ± 21.59
  IL-12p70: 3.84 ± 2.88
  KC-GRO: 186.57 ± 15.71
  TNF-a: 146.46 ± 18.66
CD11c+ splenic DCs
  LPS-induced cytokine responses in CD11c+ DCs: significantly decreased LPS-induced cytokine responses
CD11c+ splenic DCs; 10 nM, no LPS
  IL-1b: 5.22 ± 0.11
  IL-6: 47.90 ± 4.55
  IL-12p70: 5.24 ± 1.12
  KC-GRO: 62.85 ± 6.51
  TNF-a: 0 ± 0
CD11c+ splenic DCs; 100 nM + LPS
  IL-1b: 4.80 ± 0.99
  IL-6: 201.10 ± 20.96
  IL-12p70: 8.21 ± 2.79
  KC-GRO: 211.96 ± 25.23
  TNF-a: 193.29 ± 25.56
CD11c+ splenic DCs; 100 nM, no LPS
  IL-1b: 5.65 ± 0.18
  IL-6: 63.87 ± 4.78
  IL-12p70: 6.43 ± 0.67
  KC-GRO: 84.30 ± 6.06
  TNF-a: 0 ± 0
[1]; [6]
  AUC(0-inf): 89.2 ng·h/mL
  AUC(0-t): 84.6 ng·h/mL
  Cmax: 39.4 ng/mL
[1]; mouse, in vivo, IP, 1 mg/Kg in male C57BL/6 mice, Mean, read-out: Terminal t1/2 (converted)
  half-life: 101 min
[2]; Homo sapiens, 72 h, read-out: EC50 in 293/GRE-Luc (M)
  EC50: < 5e-09 M
[3]; 293/PRLR/GRE-Luc cells, 72 hours
  EC50 of GRE-Luc activation: better IC50 value than Budesonide and Dexamethasone
[3]; Homo sapiens, HEK293, read-out: EC50 in 293/PRLR/GRE-Luc (M), 72 hrs of incubation
  EC50: < 5e-09 M
[3]; Homo sapiens, HEK293, read-out: HEK293/9xUAS-Luc2P/pBind-GR/PRLR-HA high cells EC50
  pEC50: > 8.00
[3]; fold activation vs Budesonide
  HEK293/9xUAS-Luc2P/pBind-GR/PRLR-HA high cells activation relative to Budesonide: Full
[4]
  Pro-inflammatory cytokine production: significantly reduced pro-inflammatory cytokine production
  Production of IL12p70, IL6 and TNF-α: significantly decreased the production of IL12p70, IL6 and TNF-α
[4]; Condition 1, 10 nM + LPS
  IL-1b: 1.18 ± 0.11
  IL-6: 325.46 ± 2.12
  IL-8: 8670.27 ± 268.97
  IL-12p70: 1.05 ± 0.08
  TNF-a: 117.75 ± 6.63
[4]; Condition 1, 10 nM, no LPS
  IL-1b: 0.61 ± 0.007
  IL-6: 2.23 ± 0.002
  IL-8: 166.99 ± 2.01
  IL-12p70: 0.58 ± 0.002
  TNF-a: 1.28 ± 0.087
[4]; Condition 1, 100 nM + LPS
  IL-1b: 1.01 ± 0.07
  IL-6: 159.32 ± 7.31
  IL-8: 8461.59 ± 522.77
  IL-12p70: 0.50 ± 0.19
  TNF-a: 123.31 ± 0.11
[4]; Condition 1, 100 nM, no LPS
  IL-1b: 0.641 ± 0.15
  IL-6: 3.45 ± 0.13
  IL-8: 136.50 ± 0.87
  IL-12p70: 0.66 ± 0.03
  TNF-a: 1.46 ± 0.10
[4]; Condition 2, 10 nM + LPS
  IL-1b: 30.10 ± 0.93
  IL-6: 5124.75 ± 114.8
  IL-8: 3003.52 ± 212.16
  IL-12p70: 4.81 ± 0.63
  TNF-a: 874.18 ± 30.46
[4]; Condition 2, 10 nM, no LPS
  IL-1b: 0.59 ± 0.005
  IL-6: 12.87 ± 0.312
  IL-8: 274.75 ± 1.75
  IL-12p70: 0.60 ± 0.01
  TNF-a: 2.03 ± 0.14
[4]; Condition 2, 100 nM + LPS
  IL-1b: 18.20 ± 1.04
  IL-6: 4680.03 ± 104.90
  IL-8: 2735.36 ± 87.88
  IL-12p70: 2.03 ± 0.16
  TNF-a: 696.26 ± 75.10
[4]; Condition 2, 100 nM, no LPS
  IL-1b: 0.59 ± 0.03
  IL-6: 11.25 ± 0.82
  IL-8: 317.46 ± 14.83
  IL-12p70: 0.61 ± 0.02
  TNF-a: 1.37 ± 0.251
[5]
  Inhibition of TNF-α production: significantly inhibited TNF-α production
[5]; trifluoroacetic Acid Salt
  TNF-a: 56.5 pg/mL and 10.4 pg/mL and 274.8 pg/mL

## C[C@@H]1C[C@H]2[C@@H]3CCC4=CC(=O)C=C[C@]4(C)[C@@]3(F)[C@@H](O)C[C@]2(C)[C@@]1(O)C(=O)CO [Dexamethasone, dexamethasone, reference compound]
CD11c+ splenic DCs; 10 nM + LPS
  IL-1b: 34.76 ± 4.33
  IL-6: 714.89 ± 77.13
  IL-12p70: 30.41 ± 3.22
  KC-GRO: 399.40 ± 49.75
  TNF-a: 2496.27 ± 415.75
CD11c+ splenic DCs
  LPS-induced cytokine responses in CD11c+ DCs: significantly decreased LPS-induced cytokine responses
CD11c+ splenic DCs; 10 nM, no LPS
  IL-1b: 6.299 ± 0.33
  IL-6: 98.93 ± 8.98
  IL-12p70: 8.55 ± 1.08
  KC-GRO: 75.75 ± 8.03
  TNF-a: 0 ± 0
CD11c+ splenic DCs; 100 nM + LPS
  IL-1b: 10.58 ± 0.88
  IL-6: 303.48 ± 11.37
  IL-12p70: 9.29 ± 3.28
  KC-GRO: 233.49 ± 18.48
  TNF-a: 405.49 ± 70.23
CD11c+ splenic DCs; 100 nM, no LPS
  IL-1b: 5.25 ± 0.12
  IL-6: 55.07 ± 1.76
  IL-12p70: 6.05 ± 1.13
  KC-GRO: 65.99 ± 2.75
  TNF-a: 0 ± 0
[1]; [7]
  AUCINF: 562 ng·h/mL
  AUClast: 545 ng·h/mL
  Cmax: 231 ng/mL
[2]; read-out: EC50 in 293/GRE-Luc, 72 hrs of incubation, antigen negative cells
  pEC50: > 8.30
[3]; read-out: EC50 in 293/PRLR/GRE-Luc, 72 hrs of incubation
  pEC50: > 8.30
[4]
  IL-1b: 0.625 ± 0.006
  Pro-inflammatory cytokine production: significantly reduced pro-inflammatory cytokine production
  Production of IL12p70, IL6 and TNF-α: significantly decreased the production of IL12p70, IL6 and TNF-α
[4]; Condition 1, 10 nM + LPS
  IL-1b: 1.77 ± 0.11
  IL-6: 687.45 ± 2.17
  IL-8: 8789.98 ± 126.98
  IL-12p70: 4.83 ± 0.05
  TNF-a: 242.34 ± 10.75
[4]; Condition 1, 10 nM, no LPS
  IL-6: 2.68 ± 0.03
  IL-8: 174.59 ± 0.68
  IL-12p70: 0.65 ± 0.02
  TNF-a: 2.32 ± 0.098
[4]; Condition 2, 10 nM + LPS
  IL-1b: 37.88 ± 1.90
  IL-6: 5747.37 ± 234.08
  IL-8: 3314.0 ± 37.86
  IL-12p70: 6.32 ± 1.69
  TNF-a: 994.92 ± 73.66
[4]; Condition 2, 10 nM, no LPS
  IL-1b: 0.611 ± 0.003
  IL-6: 14.76 ± 0.267
  IL-8: 288.23 ± 6.02
  IL-12p70: 0.64 ± 0.03
  TNF-a: 1.73 ± 0.02
[5]
  Inhibition of TNF-α production: significantly inhibit TNF-α
[5]; listed as DEX
  TNF-a: 644.3 pg/mL and 508.5 pg/mL and 487.1 pg/mL

From patent US11760775B2, “Steroids and protein-conjugates thereof” (Regeneron Pharmaceuticals, Inc., priority 2016, dated 2023)
